The source of these data is patent EP1894572B1, “THERAPEUTIC AGENT AND/OR PROPHYLACTIC AGENT FOR NEUROGENIC PAIN” (Asahi Kasei Pharma Corporation, priority 2005, dated 2013).

Read-outs that look alike come from different tables or passages of the source. Positions of bridges follow the written chain, without caps; N, C: chain ends. Non-standard residues stand in square brackets, D forms with d. Residues, ends and D or L forms follow the SMILES beside them. Asu = N[C@@H](CCCCCC(=O)O)C(=O)O

The nature of series [1]: Blood retention time after intermittent administration. The class given is in vivo. As to the method:
From Comparative Example 1 described later, it has been considered that an analgesic action by intermittent administration of calcitonin is affected by accumulation of an effect in each administration. The blood retention time by intermittent administration is about 2 hours. Therefore, also included in the range of the present invention is an administration method in which continuous administration of 2 hours or more and less than 8 hours is repeated and accumulated duration of continuous administration within 24 hours is 8 hours or more.

For series [2] the following is noted: cited from earlier work.
For series [3], the system named is chronic constriction injury model (CCI model). Nature of the series: CCI model, Randall Selitto method, intravenous continuous drip. The class given is in vivo, rat. To be noted: neuropathic pain; after effect once manifested. As to the method:
Preparing of the CCI model and elcatonin administration initiation period were the same as in Example 1. A cannulation was performed on cervical vein, and on 2nd day after cannulation, elcatonin (0.75 U/kg/week) was administered by intravenous continuous drip at 1 mL/body/24 hours, and withdrawal pressure by Randall Slitto method was measured 4, 8, 12 and 24 hours after.

For series [4] the following is noted: human, in vivo.
The conditions of series [5]: rat, in vivo.
The conditions of series [6]: rat, in vivo. This is another data set of the same source.
The conditions of series [7]: rat, in vivo. As to the method:
Using normal rats (each 4 rats) which were in the same week old in initiation of administration of elcatonin as in Examples 1 and 2, dose of elcatonin not varying serum calcium value was examed in the case of single subcutaneous administration (administered over 10 seconds). […] Further, the same test was conducted excepting that blood collection was carried out 30 minutes after the administration. Measurement of serum calcium value was conducted using calcium C-test wako (Wako).
The source holds these as a separate data set.

For the compound calcitonin, the blood retention time result in series [1] was “about 2 hours”. Further, the serum calcium result in series [2] (bone metastasis cancer patient, s.c. 400 U/man/day mixed into morphine continuous administration) was “a significant decrease in serum calcium is recognized”; in series [2] (renal osteopathy patient, drip intravenous 40 U/man/5 hours), “no significant decrease in serum calcium is recognized”. Also, the “continuation of analgesic effect during the drug withdrawal period” value in series [3] is given as “continues for at least one week”. Besides, in series [4], the “calcitonin dose altering serum calcium values in humans” value turned out to be 0.093 mU/kg/second.
As to `CC(C)C[C@H](NC(=O)[C@H](CCCCN)NC(=O)CNC(=O)[C@H](CC(C)C)NC(=O)[C@@H](NC(=O)[C@@H]1CCCCCC(=O)N[C@@H](CO)C(=O)N[C@@H](CC(N)=O)C(=O)N[C@@H](CC(C)C)C(=O)N[C@@H](CO)C(=O)N[C@@H]([C@@H](C)O)C(=O)N1)C(C)C)C(=O)N[C@@H](CO)C(=O)N[C@@H](CCC(N)=O)C(=O)N[C@@H](CCC(=O)O)C(=O)N[C@@H](CC(C)C)C(=O)N[C@@H](Cc1c[nH]cn1)C(=O)N[C@@H](CCCCN)C(=O)N[C@@H](CC(C)C)C(=O)N[C@@H](CCC(N)=O)C(=O)N[C@H](C(=O)N[C@@H](Cc1ccc(O)cc1)C(=O)N1CCC[C@H]1C(=O)N[C@@H](CCCNC(=N)N)C(=O)N[C@H](C(=O)N[C@@H](CC(=O)O)C(=O)N[C@H](C(=O)NCC(=O)N[C@@H](C)C(=O)NCC(=O)N[C@H](C(=O)N1CCC[C@H]1C(N)=O)[C@@H](C)O)C(C)C)[C@@H](C)O)[C@@H](C)O` [elcatonin, 1-butylic acid-7-(L-2-aminobutylic acid)-26-L-aspartic acid-27-L-valine-29-L-alaninecalcitonin] (SNLST[Asu]VLGKLSQELHKLQTYPRTDVGAGTP-NH2; lactam N-6), in series [5], the body weight result was “no change in body weight was found” and the body weight increase result is recorded as “suppression of body weight increase became remarkable”. Moreover, in series [6], the serum calcium concentration entry was “did not affect serum calcium amount at all”. Besides, the “serum calcium at effective dose on neuropathic pain in intermittent administration” value in series [7] is on record as “lowered to normal value (8.5 to 10.5 mg/dl) or less”. Further, the “serum calcium value relative to normal value” in series [7] (sc) is reported as “below a normal value”.
